Data on one compound can be found in US20100304975A1, “PROCESS FOR […] RESISTANCE TO AN ABIOTIC STRESS” (ELICITYL, priority 2007, published 2010).

What all share (type): in vivo
For test [1], the system named is Pinot noir. Nature of the test: Frost-resistance of vine plants after foliar spraying, Pinot noir. Conditions: for Gain: cold stress -3 to -5° C. 12 hours after application. On the procedure:
(§1) Plants originating from different vine varieties: the Chardonnay, Pinot noir and Cabernet-Sauvignon varieties are used. Each sample, composed of 5 to 21 plants, is treated by foliar spraying at different vegetative stages on the BBCH scale with a mixture containing the xyloglucan elicitor, HEPTAMALOXYLOGLUCAN or XFGol in solution at variable doses; the spraying of 2.5 ml of solution per plant is carried out using a sprayer (deviation of +/−1%).
(§2) 12 hours after the application of the elicitor, the plants were exposed to cold stress at −3 to −5° C. After exposure to the cold, the plants are placed in a climatic chamber at 20° C. with a 12-hour day/night alternation. The appearance of the leaves is observed 24 hours and 72 hours after removal from the cold. The effects of the cold are evaluated by observing the foliar necroses induced by frost and the plants are kept for several months in order to monitor their subsequent development.
(§3) The results are expressed by the protection index IP: IP (%)=100−P; P, being the proportion of necrotized leaves.

Test [2] deals with Chardonnay. The test can be described thus: Frost-resistance of vine plants after foliar spraying, Chardonnay. As to conditions: for Gain: cold stress -3 to -5° C. 12 hours after application. On the procedure: as §1, §2, §3
Test [3] concerns Cabernet-Sauvignon. Nature of the test: Frost-resistance of vine plants after foliar spraying, Cabernet-Sauvignon. As to conditions: for Gain: Cabernet Sauvignon, cold stress -3 to -5° C. 12 hours after application. On the procedure:
as §1, §2, §3

The test system of test [4] is kiwi plants. The test can be described thus: Frost-resistance of kiwi plants after foliar spraying (death of buds). As to conditions: for Gain % / IP (protection index of kiwi buds; IP=100-P, P=proportion of dead buds): elicitor 500 nM. On the procedure: The elicitor which is used is HEPTAMALOXYLOGLUCAN (or XFGol).
Before the cold stress, plants are treated or not by foliar spraying with a spray mixture containing HEPTAMALOXYLOGLUCAN.
After application of the spraying mixture, the plants were exposed to cold stress. In order to reproduce artificial conditions of cold stress, plants were placed in a climatic chamber.
The effects of cold are evaluated by observing the death of buds due to frost.
The results are expressed by the protection index IP: IP (%)=100-P; P, being the proportion of dead buds.
The results are also expressed in gain:
Increase of protection of kiwi plants elicited by the product PEL101GV (500 nM). IP corresponds to the protection index of kiwi buds, 28 days after the cold stress at −2,8° C. or −4° C. (IP=100−P; P=proportion of dead buds)

Where [5] appears, read: spray mixture containing 5 nM, compared within a range of 0.5 nM to 5000 nM.
Where [6] appears, read: 28 days after the cold stress at -2.8° C.
[7] abbreviates: 28 days after the cold stress at -4° C.

Turning to `CC1OC(OC2C(OC3C(OCC4OC(OC(C(O)CO)C(O)C(O)CO)C(O)C(O)C4OC4OC(COC5OCC(O)C(O)C5O)C(O)C(O)C4O)OCC(O)C3O)OC(CO)C(O)C2O)C(O)C(O)C1O` (stereo not drawn) [HEPTAMALOXYLOGLUCAN], the Gain is recorded as 0% in test [1] (elicitor 0.5 nM foliar spray); 34% in test [1] (elicitor 5 nM foliar spray); 0% in test [1] (elicitor 50 nM foliar spray); 27% in test [1] (elicitor 500 nM foliar spray); 25% in test [1] (elicitor 5000 nM foliar spray); 28% in test [2] (elicitor 0.5 nM foliar spray). Also, the Gain in test [2] (elicitor 5 nM foliar spray) is given as 42%; in test [2] (elicitor 50 nM foliar spray) it was 9%; in test [2] (elicitor 500 nM foliar spray), 0%; in test [2] (elicitor 5000 nM foliar spray), 28%; in test [3] (elicitor 5 nM foliar spray), 46%; in test [3] (elicitor 50 nM foliar spray), 35%. In test [3] (elicitor 500 nM foliar spray), this compound came in with a Gain of 76%. In addition, the protection against frost result is given as “more efficient than the other doses” in test [1] (setting [5]); “more efficient than the other doses” in test [2] (setting [5]); “more efficient than the other doses” in test [3] (Cabernet sauvignon, spray mixture containing 500 nM, compared with the other doses). Moreover, the Gain % is 27% in test [4] (setting [6]) and 87% in test [4] (setting [7]). In addition, the “IP (protection index of kiwi buds; IP=100-P, P=proportion of dead buds)” value in test [4] (setting [6]) was determined as 81%; in test [4] (setting [7]), 56%. Moreover, the “protection of the kiwi buds against frost” value in test [4] (treated versus control) is on record as “better protection”.
